Data set [1] has as its system male ZDF rats. In words: Food consumption after oxyntomodulin/FDKP powder. Format: in vivo, rat. The note with it: 0.15-0.9 mg oxyntomodulin as 30% powder, rats fasted 24 hr.
Method: Male ZDF rats (10/group) were assigned to one of four groups.
Rats were allowed to eat after receiving the experimental dose. A predetermined amount of food was given to the rats and the amount of food the rats consumed was measured at various times after the start of the experiment.
The conditions of data set [2]: literature evaluation; cited from earlier work.
For data set [3] the following is noted: Deacon et al., cited from earlier work.
Data set [4] has as its system healthy adult male subjects.
Method: Additional pulmonary safety and pharmacokinetic parameters were also evaluated. Pulmonary safety as expressed by the incidence of pulmonary and other adverse events and changes in pulmonary function between Visit 1 (Screening) and Visit 3 (Follow-up) was studied. […] Clinical trial endpoints were based on a comparison of the following pharmacological and safety parameters determined in the trial subject population. Primary endpoints included the incidence and severity of reported AEs, including cough and dyspnea, nausea and/or vomiting, as well as changes from screening in vital signs, clinical laboratory tests and physical examinations.
Data set [5] concerns healthy adult male subjects. Put plainly: Phase 1a trial of GLP-1/FDKP inhalation powder: insulin, glucose and glucagon response. The data set is classed as in vivo, human. Conditions: 1.5 mg GLP-1; two of the six subjects; value that defines hypoglycemia. The source says: Dropouts were not replaced. These dosages assumed a body mass of 70 kg.

Take oxyntomodulin: the “duration of significantly less food consumed than control rats” value in data set [1] is “up to 6 hr”.
In the case of `CC[C@H](C)[C@H](NC(=O)[C@H](Cc1ccccc1)NC(=O)[C@H](CCC(=O)O)NC(=O)[C@H](CCCCN)NC(=O)[C@H](C)NC(=O)[C@H](C)NC(=O)[C@H](CCC(N)=O)NC(=O)CNC(=O)[C@H](CCC(=O)O)NC(=O)[C@H](CC(C)C)NC(=O)[C@H](Cc1ccc(O)cc1)NC(=O)[C@H](CO)NC(=O)[C@H](CO)NC(=O)[C@@H](NC(=O)[C@H](CC(=O)O)NC(=O)[C@H](CO)NC(=O)[C@@H](NC(=O)[C@H](Cc1ccccc1)NC(=O)[C@@H](NC(=O)CNC(=O)[C@H](CCC(=O)O)NC(=O)[C@H](C)NC(=O)[C@@H](N)Cc1c[nH]cn1)[C@@H](C)O)[C@@H](C)O)C(C)C)C(=O)N[C@@H](C)C(=O)N[C@@H](Cc1c[nH]c2ccccc12)C(=O)N[C@@H](CC(C)C)C(=O)N[C@H](C(=O)N[C@@H](CCCCN)C(=O)NCC(=O)N[C@@H](CCCNC(=N)N)C(N)=O)C(C)C` [GLP-1, GLP-1(7-36)amide], the “time for plasma active GLP-1 to fall to the physiological range” value (after inhalation of GLP-1/FDKP powder) is given as ≤ 9 min. Moreover, where the note is “at comparable active concentrations”, the “metabolite peaks, intravenous compared to pulmonary administration” value was 8-9 fold greater. Further, the “active GLP-1 concentration in blood plasma above which profuse sweating, nausea and vomiting are typically observed” value in data set [2] was “exceed 100 pmol/L”. Further, the “degradation in the liver” value in data set [3] was 45%. Moreover, in data set [3] (intravenous, pigs), the “GLP-1 instantaneously metabolized in the vein” value is given as 40%, the “GLP-1 metabolized in the deoxygenated blood in the lung” value is on record as 10% and the “extraction by the portal bed” value was 20%. For the same molecule, the “subjects reporting symptoms of nausea, profuse sweating or vomiting” value in data set [4] (all doses, pulmonary) is given as “None of the subjects”. For the same molecule, the “inhibition of gastric emptying” value in data set [4] (pulmonary dry powder, data not shown) was “lack inhibition of gastric emptying”. Also, the “glucose concentration lowered by GLP-1” value in data set [5] is given as “below 3.5 mmol/L”.

These data come from patent US20150231067A1, “METHOD AND COMPOSITION FOR TREATING HYPERGLYCEMIA” (MannKind Corporation, priority 2012, published 2015).
